Test results as given in the NIST ThermoML archive (doi:10.1021/acs.jced.6b00895).
± gives the expanded uncertainty stated by the source. Each block holds one molecule with its values, some of them ahead of it.

Details: Liquid, Ebulliometric method (Recirculating still)

- vapor or sublimation pressure (393.15 K): 101.3 ± 1.5 kPa
Compound: COCC(C)O (centres undefined) [1-methoxy-2-propanol]

- vapor or sublimation pressure (402.65 K): 101.3 ± 1.5 kPa
Compound: COC(C)CO (centres undefined) [2-methoxy-1-propanol]

- vapor or sublimation pressure (397.67 K): 101.3 ± 1.5 kPa
Compound: COCCO [2-methoxyethan-1-ol]

- vapor or sublimation pressure (373.19 K): 101.3 ± 1.5 kPa
Compound: O [water]
